# Marks after values point to notes of the source that are not given here.
# Key:
# Format in all cases: in vivo, human
# peripheral whole blood = experiment: Differential gene expression analyses (microarray) in atopic dermatitis patients
# Procedure: As an exploratory end point to potentially identify immune pathways affected by apremilast, peripheral whole blood was obtained for differential gene expression analyses at baseline and after 3 (cohort 1) and 6 (cohort 2) months of treatment to determine apremilast's potential mechanism of action in patients with atopic dermatitis. RNA isolation and microarray analyses were performed in the Oregon Health and Science University Gene Microarray Shared Resource. Total RNA was isolated from PAXGene tubes using the PAXGene Blood RNA Isolation kit (QIAGEN Inc). RNA quantity was measured by spectrophotometric analysis; RNA quality was evaluated by size analysis on the Bioanalyzer 2100 (Agilent Technologies Inc). All samples passed RNA quality assessment review.
# RNA samples were labeled using the OvationWTAPico Amplification and Labeling System (NuGEN Technologies Inc). Fifty nanograms of each sample were amplified with the Ovation WTA Pico kit, converted to sense complementary DNA (cDNA) with the WT-Ovation Exon Module, version 1, kit, and labeled with the Encore Biotin Module kit. Hybridization and array processing were performed as described in the NuGEN Encore Biotin Module User Guide http://www.nugeninc.com/tasks/sites/nugen/assets/File/user_guides/userguide_encore_biotin.pdf). Two micrograms of each labeled cDNA target werehybridized with the GeneChip Human Gene 1.0 ST array (Affymetrix) and scanned on the Affymetrix GeneChip 3000 Scanner. The array image was processed with Affymetrix Command Console (version 3.1.1). Data were normalized using the robust multichip average method.
# Differential expression analyses were performed on 16 paired samples. All putatively differentially expressed genes were based on false discovery rate-adjusted P values<0.05. Based on the putative differentially expressed gene list, both enriched pathways and functional gene ontologic characteristics were identified (P<0.05 for hypergeometric test) in the GoStats package within the Bioconductor statistical programming environment (http://www.bioconductor.org).
# [1] = system: patients with moderate to severe atopic dermatitis; experiment: Open-label pilot study of 2 doses of apremilast in adult atopic dermatitis; conditions: for DLQI scores, average reduction / EASI scores, average reduction / patients who reduced their IGA score by 1 U / average reduction in itch using a VAS / DLQI score, mean after treatment / EASI score, mean after treatment / VAS for pruritus, mean after treatment: 3 months; for average reduction in itch using a VAS: intent-to-treat; for EASI after treatment: from 21.1
# [2] = system: patients with moderate to severe plaque psoriasis; experiment: Esteem 2: randomized, double-blind, placebo controlled, multicenter clinical study in psoriasis; conditions: for PASI-75, % (LOCF): primary endpoint; for sPGA score 0 (clear) or 1 (almost clear), % (LOCF): with ≥2-point reduction from baseline; for PPPGA score 0 (clear) or 1 (almost clear), %: patients with palmoplantar psoriasis (PPPGA ≥3), n = 26; for ScPGA score 0 (clear) or 1 (minimal), %: patients with scalp psoriasis (ScPGA ≥3), n = 176
# Procedure: In the study 413 patients were enrolled; patients ranged in age from 18 to 83 years, with an overall median age of 46 years. The mean baseline body surface area (BSA) involvement was 25.19% (median 21.0%), the mean baseline PASI score was 19.07 (median 16.80), and the proportion of patients with sPGA score of 3 (moderate) and 4 (severe) at Baseline were 70.0% and 29.8%, respectively. Patients were randomized to Apremilast in an amount of 30 mg twice per day (after the initial dose titration schedule) or placebo for the first 16 weeks, and from Weeks 16 to 32, all patients received Apremilast in an amount of 30 mg twice per day.
# Target Dose: 30 mg (po) BID
# Day 1: 10 mg in the morning
# Day 2: 10 mg morning; 10 mg after noon
# Day 3: 10 mg morning; 20 mg after noon
# Day 4: 20 mg morning; 20 mg after noon
# Day 5: 20 mg morning; 30 mg after noon
# During the Randomized Treatment Withdrawal Phase (Weeks 32-52), patients originally randomized to Apremilast who achieved at least a 50% reduction in PASI score (PASI-50) were re-randomized to either placebo or Apremilast 30 mg BID. Patients who were re-randomized to placebo and who lost 50% of the improvement in PASI at Week 32 compared to Baseline, were retreated with Apremilast 30 mg BID.
# [3] = cohort 1, 20 mg twice a day, baseline vs 3 months
# [4] = cohort 2, 30 mg twice a day, 6 months
# [5] = 61 patients with ≥PASI-50 at Week 32 re-randomized to apremilast
# [6] = Week 16, 30 mg BID, n = 274, LOCF
# [7] = Week 16, 30 mg BID, n = 274, LOCF, listed as Apremilast
# [8] = Week 16, 30 mg BID, n = 274, listed as Apremilast
# [9] = Week 16, 30 mg BID, patients with baseline DLQI >5, n = 226
# [10] = Week 16, 30 mg BID, patients with nail psoriasis (score ≥1), n = 175
# [11] = Week 16, 30 mg BID, listed as Apremilast
# [12] = initially randomized to apremilast, did not achieve PASI-50 at Week 32
# [13] = patients treated with apremilast from baseline
# [14] = placebo at baseline, switched to apremilast at Week 16, achieved PASI-50 at Week 32
# [15] = placebo at baseline, switched to apremilast at Week 16, did not achieve PASI-50 at Week 32
compound,measurement,setting,value
"CCOc1cc([C@@H](CS(C)(=O)=O)N2C(=O)c3cccc(NC(C)=O)c3C2=O)ccc1OC [apremilast, (+)-2-[1-(3-ethoxy-4-methoxyphenyl)-2-methylsulfonylethyl]-4-acetylaminoisoindoline-1,3-dione]",BAD (bcl-2 antagonist of cell death) phosphorylation pathway gene expression,peripheral whole blood; [3],significant differential expression
same,IL-12 signaling (gene ontologic analysis),peripheral whole blood; [3],significant differential expression
same,cAMP response element binding (CREB) pathway gene expression,peripheral whole blood; [3],significant differential expression
same,chemokine-mediated signaling (gene ontologic analysis),peripheral whole blood; [3],significant differential expression
same,cytoskeleton remodeling (gene ontologic analysis),peripheral whole blood; [3],significant differential expression
same,regulation of immune complex clearing by monocytes and macrophages (gene ontologic analysis),peripheral whole blood; [3],significant differential expression
same,CCR3 signaling in eosinophils gene expression,"peripheral whole blood; cohort 2, 30 mg twice a day, baseline vs 6 months",significant differential expression
same,DLQI after treatment,"[1]; both cohorts combined, post hoc intent-to-treat, mean baseline 11.6",4.7
same,EASI score after treatment,"[1]; both cohorts combined, post hoc intent-to-treat, mean baseline 24.8",16.2
same,VAS after treatment,"[1]; both cohorts combined, post hoc intent-to-treat, mean baseline 52.0 mm",31.7 mm
same,time to statistically significant decline in pruritus,"[1]; cohort 1, 20 mg twice a day",≤ 2 weeks
same,"DLQI scores, average reduction","[1]; cohort 1, 20 mg twice a day",55%
same,"EASI scores, average reduction","[1]; cohort 1, 20 mg twice a day",19%
same,patients who reduced their IGA score by 1 U,"[1]; cohort 1, 20 mg twice a day, 6 patients",1
same,average reduction in itch using a VAS,"[1]; cohort 1, 20 mg twice a day",49%
same,"DLQI score, mean after treatment","[1]; cohort 1, 20 mg twice a day, mean baseline 14.2",6.2
same,"EASI score, mean after treatment","[1]; cohort 1, 20 mg twice a day, mean baseline 30.9",22.1
same,"VAS for pruritus, mean after treatment","[1]; cohort 1, 20 mg twice a day, mean baseline 62.3 mm",30.5 mm
same,time to statistically significant clinical improvement in atopic dermatitis,"[1]; cohort 2, 30 mg twice a day",≤ 2 weeks
same,patients who achieved an IGA score of mild,"[1]; cohort 2, 30 mg twice a day, 3-month time point",One patient
same,"DLQI scores, average reduction","[1]; cohort 2, 30 mg twice a day",58%
same,"EASI scores, average reduction","[1]; cohort 2, 30 mg twice a day",39%
same,patients who reduced their IGA score by 1 U,"[1]; cohort 2, 30 mg twice a day, 10 patients",Two of 10 patients
same,average reduction in itch using a VAS,"[1]; cohort 2, 30 mg twice a day",25%
same,"VAS for pruritus, mean after treatment","[1]; cohort 2, 30 mg twice a day, baseline 45.8 mm",32.4 mm
same,"DLQI score, mean after treatment","[1]; cohort 2, 30 mg twice a day, mean baseline 10.1",3.8
same,"EASI score, mean after treatment","[1]; cohort 2, 30 mg twice a day, mean baseline 21.4",13.2
same,"patients improved at least 1 U in the IGA, %",[1]; [4],50%
same,"patients improved at least 1 U in the IGA, number",[1]; [4],Five patients
same,patients who achieved an IGA of almost clear,[1]; [4],1
same,patients who reached an IGA of mild,[1]; [4],Four of these 5
same,EASI after treatment,"[1]; cohort 2, 30 mg twice a day, 6 months, intent to treat",11.6
same,VAS after treatment,"[1]; cohort 2, 30 mg twice a day, 6 months, intent to treat, from 45.8 mm",25.3 mm
same,DLQI after treatment,"[1]; cohort 2, 30 mg twice a day, 6 months, per protocol, from 10.1",4.0
same,EASI after treatment,"[1]; cohort 2, 30 mg twice a day, 6 months, per protocol",10.4
same,VAS after treatment,"[1]; cohort 2, 30 mg twice a day, 6 months, per protocol, from 45.8",22.7
same,patients who reached an IGA score of clear or almost clear,"[1]; either cohort (20 mg or 30 mg twice a day), 3-month time point",No patient
same,"Non-overlapping confidence intervals vs placebo in improvement in pruritus and skin discomfort/pain from baseline, first detected",[2]; 30 mg BID,as early as Week 2
same,"Non-overlapping confidence intervals vs placebo in mean percentage improvement in PASI from baseline, first detected","[2]; 30 mg BID, first post-baseline visit",as early as Week 2
same,regained PASI-50 response after re-treatment,[2]; 32 patients re-randomized to placebo who lost 50% of PASI improvement and re-initiated apremilast before Week 52,65.6%
same,PASI-75 at Week 52,[2]; 36 patients re-randomized to apremilast who were also PASI-75 responders at Week 32,66.7%
same,PASI-50 response at Week 52,[2]; [5],80.3%
same,mean percent change in PASI at Week 52,[2]; [5],−74.4%
same,≥70% improvement from baseline in PASI score at Week 52,[2]; [5],60.7%
same,decrease in pruritus severity from baseline,"[2]; Week 16, 30 mg BID",~50%
same,decrease in skin discomfort/pain severity from baseline,"[2]; Week 16, 30 mg BID",~50%
same,"PASI-50, % (LOCF)","[2]; Week 16, 30 mg BID, n = 274",55.5%
same,"PASI-50, % (NRI)","[2]; Week 16, 30 mg BID, n = 274",53.6* %
same,"PASI-75, % (NRI)","[2]; Week 16, 30 mg BID, n = 274",28.1* %
same,"PASI-90, % (LOCF)","[2]; Week 16, 30 mg BID, n = 274",8.8%
same,"sPGA score 0 (clear) or 1 (almost clear), % (NRI)","[2]; Week 16, 30 mg BID, n = 274",19.7* %
same,Mean % change in PASI score,[2]; [6],−50.9%
same,Mean change in DLQI score,[2]; [6],−6.7*
same,"Mean change in pruritus VAS score, mm",[2]; [6],−33.5 mm
same,"Mean change in skin discomfort/pain VAS score, mm",[2]; [6],−28.5 mm
same,Median % change in PASI score,[2]; [6],−56.0%
same,Mean % change in PASI score,[2]; [7],−50.9* %
same,"Mean change in pruritus VAS score, mm",[2]; [7],−33.5* mm
same,"Mean change in skin discomfort/pain VAS score, mm",[2]; [7],−28.5* mm
same,"PASI-50, % (LOCF)",[2]; [8],55.5* %
same,"PASI-90, % (LOCF)",[2]; [8],8.8^‡ %
same,"PASI-75, % (LOCF)","[2]; Week 16, 30 mg BID, n = 274",28.8%
same,"PASI-75, % (LOCF)",[2]; [8],28.8* %
same,"sPGA score 0 (clear) or 1 (almost clear), % (LOCF)","[2]; Week 16, 30 mg BID, n = 274",20.4%
same,"sPGA score 0 (clear) or 1 (almost clear), % (LOCF)",[2]; [8],20.4* %
same,"DLQI (decrease of ≥5 points) + PASI-50 response, %",[2]; [9],49.1* %
same,"DLQI response (decrease of ≥5 points), %",[2]; [9],70.8* %
same,Mean % change in NAPSI score,[2]; [10],−29.0** %
same,"NAPSI-50, %",[2]; [10],44.6%
same,"NAPSI-50, %","[2]; Week 16, 30 mg BID, patients with nail psoriasis (score ≥1), n = 175, listed as Apremilast",44.6* %
same,"PPPGA score 0 (clear) or 1 (almost clear), %","[2]; Week 16, 30 mg BID",65.4%
same,"PPPGA score 0 (clear) or 1 (almost clear), %",[2]; [11],65.4^|| %
same,"ScPGA score 0 (clear) or 1 (minimal), %","[2]; Week 16, 30 mg BID",40.9%
same,"ScPGA score 0 (clear) or 1 (minimal), %",[2]; [11],40.9* %
same,Response rates in placebo patients who switched to apremilast at Week 16 vs apremilast in both treatment periods,[2]; Weeks 16 to 32,response rates similar
same,Severity of the majority of adverse events,[2]; did not lead to discontinuation,mild to moderate
same,5 most common adverse events (AEs),"[2]; human, in vivo","diarrhea, nausea, upper respiratory tract infection, tension headache, and headache"
same,Discontinuation due to upper respiratory tract infection,"[2]; human, in vivo",No patient discontinued
same,Discontinuations due to AEs: diarrhea,"[2]; human, in vivo",0.8%
same,Discontinuations due to AEs: headache,"[2]; human, in vivo",0.4%
same,Discontinuations due to AEs: nausea,"[2]; human, in vivo",1.2%
same,Discontinuations due to AEs: tension headache,"[2]; human, in vivo",0.2%
same,PASI-50 at Week 52,[2]; [12],32.8%
same,mean percent change from baseline in PASI score at Week 52,[2]; [12],−45.7%
same,median time to first loss of 50% of the PASI improvement obtained at Week 32,[2]; patients re-randomized to apremilast,21.9 weeks
same,"PASI, sPGA, and DLQI responses from Weeks 16 to 32",[2]; [13],generally maintained
same,"PASI-50, PASI-75, and PASI-90 responses from Weeks 16 to 32",[2]; [13],generally maintained
same,PASI-50 at Week 52,[2]; [14],83.1%
same,mean percent change in PASI from baseline at Week 52,[2]; [14],−71.8%
same,PASI-50 at Week 52,[2]; [15],16.0%
same,mean percent change from baseline in PASI at Week 52,[2]; [15],−24.7%
same,signs and symptoms of psoriasis,[2]; study conclusion,significantly improved

# Source: patent US10092541B2, “Methods for the treatment of diseases ameliorated by PDE4 inhibition using dosage titration of apremilast” (CELGENE CORPORATION, priority 2014, dated 2018)
